The record followed here is patent publication US11180498B2, “Substituted pyrrolo[2,3-b]pyridines, pyrazolo[3,4-d]pyrimidines and [1,2,3]triazolo[4,5-b]pyridines as potent antivirals” (The Regents of the University of California, priority 2017, dated 2021).

Series [1] relates to Echovirus 30. The experiment in a line: Virus CPE assay, ECHO30 in LLC cells. It counts as cell-based. As to conditions: Enterovirus B, >10 = no antiviral activity at 10 μM.
Series [2] relates to Coxsackievirus B4. The experiment in a line: Virus CPE assay, CVB4 in HeLa-RW cells. The settings on record: Enterovirus B, >10 = no antiviral activity at 10 μM. The format is cell-based.
Series [3] has as its system Coxsackievirus A9. The experiment in a line: Virus CPE assay, COX A9 in LLC cells. The format is cell-based. The settings on record: Enterovirus B, >10 = no antiviral activity at 10 μM.
The test system of series [4] is Coxsackievirus B3-H3. The experiment in a line: Virus CPE assay, CVB3-H3 in HeLa-RW cells. The settings on record: >10/>25 = no antiviral activity at 10 or 25 μM. The format is cell-based.
The test system of series [5] is Echovirus 25. Kind of series: Virus CPE assay, ECHO25 in LLC cells. The settings on record: Enterovirus B, >10 = no antiviral activity at 10 μM. It counts as cell-based.
Series [6] relates to Poliovirus 1. Kind of series: microbe, parasite or virus in culture. It counts as cell-based. The settings on record: Enterovirus C, read-out: EC50 PV1.
Series [7] deals with Poliovirus 3. Kind of series: microbe, parasite or virus in culture. It counts as cell-based. As to conditions: Enterovirus C, read-out: EC50 PV3.
Series [8] concerns Echovirus 11. Kind of series: Virus CPE assay, ECHO11 in LLC cells. The format is cell-based. As to conditions: Enterovirus B, >10 = no antiviral activity at 10 μM.
For series [9], the system named is Coxsackievirus B1. The experiment in a line: Virus CPE assay, CVB1 in HeLa-RW cells. The format is cell-based. The settings on record: Enterovirus B, >10 = no antiviral activity at 10 μM.
Series [10] concerns Echovirus 7. The experiment in a line: Virus CPE assay, ECHO07 in LLC cells. The format is cell-based. The settings on record: Enterovirus B, >10 = no antiviral activity at 10 μM.
Series [11] has as its system Coxsackievirus B5. Kind of series: Virus CPE assay, CVB5 in HeLa-RW cells. It counts as cell-based. As to conditions: Enterovirus B, >10 = no antiviral activity at 10 μM.
The test system of series [12] is Enterovirus 71. The experiment in a line: Virus CPE assay, EV71 in LLC cells. The format is cell-based. The settings on record: Enterovirus A, >10 = no antiviral activity at 10 μM.
The test system of series [13] is Echovirus 6. Kind of series: Virus CPE assay, ECHO06 in LLC cells. The format is cell-based. As to conditions: Enterovirus B, >10 = no antiviral activity at 10 μM.
For series [14], the system named is Coxsackievirus B2. Kind of series: Virus CPE assay, CVB2 in HeLa-RW cells. It counts as cell-based. The settings on record: Enterovirus B, >10 = no antiviral activity at 10 μM.
The test system of series [15] is Echovirus 9. Kind of series: Virus CPE assay, ECHO09 in LLC cells. It counts as cell-based. The settings on record: Enterovirus B, >10 = no antiviral activity at 10 μM.
The subject of series [16] is LLC cells. The experiment in a line: Cytotoxicity (CC50) in LLC cells. The settings on record: concentration that reduces host cell viability by 50%. It counts as cell-based. As for the experimental part:
(§1) Each compound is initially tested against each virus at 10 μM in a virus CPE assay. A compound that is active against a virus, protecting the cells from CPE, is further evaluated for its 50% effective concentration (EC50) value and 50% cytotoxicity concentration (CC50) value. Serial 2-fold dilutions of an active compound are prepared. For EC50 value determination, a 7-point dose-response curve is constructed using a virus CPE assay and EC50 value is estimated using four parameter model or sigmoidal model. For CC50 value determination, cells are incubated with serial 2-fold dilutions of a compound for the same period as the virus CPE assay, and then cells were fixed, stained and read as in the virus CPE assay.
(§2) Table 3 provides the compound concentration in μM units that reduces cell viability of the host cell by 50% (CC50) for certain compounds of the present technology for HeLa-RW and LLC cells. Blank cells indicate that the cytotoxicity assessment is not yet complete.

Series [17] relates to Enterovirus D68 strain US/Mo/14-18949. Kind of series: Virus CPE assay, Enterovirus D68 US/Mo/14-18949 in RD cells. It counts as cell-based. As to conditions: for EC50: Enterovirus D, RD cells. As for the experimental part:
(§3) Cells growing in 96 well plates are infected with a given virus at given low multiplicities of infection pre-determined to result in 100% cytopathic effects (CPE) in the cultures after 3-4 days incubation. Cultures are monitored daily for microscopic signs of typical CPE: rounding of cells and detachment. […] Dead cells and debris are washed out and the remaining blue stain intensity in each well is quantified by spectrophotometry at a wavelength of 590 nm (OD590) as a measurement of viability. […] Serial 2-fold dilutions of an active compound are prepared. […] Table 4 provides the results of cell-based assays with RD cells evaluating the antiviral activities of certain representative compounds of the present technology with certain strains of Enterovirus D68, namely strains Fermon (“D68/Fermon”), US/Mo/14-18949 (“D68/US/Mo/14-18949”), and US/KY/14-18953 (“D68/US/KY/14-18953”). The values indicated in the strain columns are EC50 values in μM units. The CC50 values (in μM units) for RD cells are also provided for evaluation of SI50.

In series [18] the test system is HeLa-RW cells. Kind of series: Cytotoxicity (CC50) in HeLa-RW cells. It counts as cell-based. As to conditions: concentration that reduces host cell viability by 50%. As for the experimental part: as §1, §2
In series [19] the test system is Enterovirus D68 strain US/KY/14-18953. The experiment in a line: Virus CPE assay, Enterovirus D68 US/KY/14-18953 in RD cells. The format is cell-based. As to conditions: Enterovirus D. How it is done: as §3
A short description of series [20]: Cytotoxicity (CC50) in RD cells. The format is cell-based. The settings on record: human. As for the experimental part: as §1
Table 4 provides the results of cell-based assays with RD cells evaluating the antiviral activities of certain representative compounds of the present technology with certain strains of Enterovirus D68, namely strains Fermon (“D68/Fermon”), US/Mo/14-18949 (“D68/US/Mo/14-18949”), and US/KY/14-18953 (“D68/US/KY/14-18953”). The values indicated in the strain columns are EC50 values in μM units. The CC50 values (in μM units) for RD cells are also provided for evaluation of SI50.

Series [21] deals with Enterovirus D68 strain Fermon. The experiment in a line: Virus CPE assay, Enterovirus D68 Fermon in RD cells. It counts as cell-based. The settings on record: Enterovirus D. As for the experimental part:
as §3

The subject of series [22] is Enterovirus D68. Kind of series: Antiviral cell-based assays, summary for at least one strain. The settings on record: Enterovirus D, not named, read-out: EC50 against at least one strain. As for the experimental part: as §3
Series [23] in a line: Cytotoxicity (CC50) in LLC cells. It counts as cell-based. The settings on record: LLC cells; concentration that reduces host cell viability by 50%. How it is done:
as §1, §2

Molecules are shown by their SMILES. A value given as a limit tells only on which side of the number the result lay.

As to `CC(C)n1nnc2c(C(=O)Nc3ccc(F)cc3)cc(-c3cccs3)nc21` [JX-035], the EC50 in series [1], in [2], in [3], in [4], in series [5] and in [6] was > 10 µM each time. Also, the EC50 in series [7], in series [8], in series [9], in [10], in series [11] and in [12] was > 10 µM in each case. The 50% effective concentration (EC50) in [13], in [14] and in [15] was > 10 µM in each case.

For the compound `CC(C)n1ncc2c(C(=O)Nc3ccc(F)cc3)nc(-c3cccs3)nc21` [JX-036], the concentration for a half-maximal effect (EC50) in series [1], in [2], in series [3], in series [4], in series [5] and in series [6] was > 10 µM each time. Besides, the EC50 in series [7], in [8], in series [9], in series [10], in series [11] and in [12] was > 10 µM throughout. In addition, the EC50 in series [13], in series [14] and in series [15] was > 10 µM each time.

On to `CC(C)n1ncc2c(C(=O)Nc3ccccc3F)cc(-c3cccs3)nc21` [JX-001, reference compound], for which the EC50 was 1.2 µM in [1]; 2.3 µM in series [2]; 2.6 ± 0.9 µM in [3]; 0.33 ± 0.05 µM in series [17]; 1.4 ± 0.6 µM in series [4]; 3 µM in series [5]. For the same compound, the concentration for a half-maximal effect (EC50) in [6] turned out to be 7 µM; in series [7], 7 µM; in [8] it was 1.5 ± 0.4 µM; in series [9], 2.4 ± 0.2 µM; in series [10], 2.4 µM; in [11], 2.3 µM. The 50% effective concentration (EC50) in series [12] was 2.3 ± 1.2 µM; in series [19], 0.5 ± 0.17 µM; in series [13] it was 2.3 ± 0.9 µM; in series [14] it was 2.8 ± 0.4 µM; in series [15] it was 2.1 ± 1.2 µM; in series [21] it was 0.35 ± 0.05 µM. Moreover, the half-maximal cytotoxic concentration (CC50) in series [16] is 50 µM; in series [18] it was 12.5 µM; in series [20], 200 µM.

Regarding `CC(C)n1ccc2c(C(=O)Nc3ccncc3)cc(-c3cccs3)nc21` [JX-063], the EC50 in series [2], in series [4], in [6], in [7], in [9] and in series [11] was > 10 µM each time. Further, in series [14], the EC50 was > 10 µM.

`CC(C)n1ccc2c(C(=O)Nc3ccccn3)cc(-c3cccs3)nc21` [JX-072]: the CC50 is > 200 µM in series [16], 18.8 µM in series [18] and 25 µM in series [20]. In addition, the EC50 in series [4] was 2.2 ± 0.4 µM; in series [6], > 10 µM; in [7], > 10 µM; in [9], 1.56 µM; in series [10], 3 µM; in [12], 1.2 µM. Also, the concentration for a half-maximal effect (EC50) in [19] was 0.6 µM; in [22] it was < 1 µM; in series [14] it was 2.33 µM; in series [21], < 0.4 µM.

As to `CC(C)n1ccc2c(C(=O)Nc3cccnc3)cc(-c3cccs3)nc21` [JX-062], the EC50 in series [2] was 1.2 µM; in [17], 0.13 ± 0.03 µM; in [4] it was 1.3 µM; in series [6], > 10 µM; in series [7], > 10 µM; in series [8], 1.2 µM. Further, the EC50 is 1.2 µM in [9]; 1.2 µM in [11]; 0.8 µM in series [12]; 0.26 ± 0.07 µM in series [19]; < 1 µM in series [22]; 1.2 µM in [14]. Further, the EC50 is 0.4 µM in [15] and 0.16 ± 0.03 µM in [21]. For the same compound, the CC50 in series [16] turned out to be 25 µM; in series [18], 18 µM; in series [20], 25 µM.

For `CC(C)n1ccc2c(C(=O)Nc3ccc(F)cc3)cc(-c3cccs3)nc21` [JX-037], the EC50 is 3.1 ± 0.1 µM in series [2]; 0.57 ± 0.15 µM in [17]; 3.1 ± 0.1 µM in series [4]; > 25 µM in series [6]; > 25 µM in [7]; 3.6 ± 0.6 µM in series [9]. In addition, the EC50 was 2.7 ± 0.6 µM in series [11]; 2.2 µM in [12]; 1.1 ± 0.3 µM in [19]; < 1 µM in series [22]; 3.6 ± 0.6 µM in series [14]; 0.86 ± 0.31 µM in [21]. The 50% cytotoxic concentration (CC50) in [23] is 100 µM; in series [20], > 200 µM. Also, the SI result in series [17] (Enterovirus D68/US/Mo/14-18949, >200/0.57) is given as “over 350”.
